Laboratory results as given in US5914319A, “Antithrombotic agents” (Eli Lilly and Company, priority 1995, dated 1999).
Structures can show the parent of a compound that is named as a salt.

Tests used:
Type in all cases: biochemical
Human plasma [1] = assay: Human plasma anticoagulation, prothrombin time (PT); conditions: concentration required to double the PT, linear extrapolation
Procedure: (§1) Dog plasma and rat plasma is obtained from conscious mixed-breed hounds (either sex, Hazelton-LRE, Kalamazoo, Mich., U.S.A.) or from anesthetized male Sprague-Dawley rats (Harlan Sprague-Dawley, Inc., Indianapolis, Ind., U.S.A.) by venipuncture into 3.8 percent citrate. Fibrinogen is prepared from in-date ACD human blood as the fraction I-2 according to previous procedures and specifications. […] Human fibrinogen is also purchased as 98 percent pure/plasmin free from American Diagnostica, Greenwich, Conn. Coagulation reagents ACTIN, Thromboplastin, and Human plasma are from Baxter Healthcare Corp., Dade Division, Miami, Fla. Bovine thrombin from Parke-Davis ([…], Mich.) is used for coagulation assays in plasma.
(§2) Coagulation assay procedures are as previously described. […] A CoAScreener coagulation instrument (American LABor, Inc.) is used for all coagulation assay measurements. The prothrombin time (PT) is measured by adding 0.05 mL saline and 0.05 mL Thromboplastin-C reagent to 0.05 mL test plasma. The activated partial thromboplastin time (APTT) is measured by incubation of 0.05 mL test plasma with 0.05 mL Actin reagent for 120 seconds followed by 0.05 mL CaCl2 (0.02M). The thrombin time (TT) is measured by adding 0.05 mL saline and 0.05 mL thrombin (10 NIH units/mL) to 0.05 mL test plasma. The compounds of Formula I are added to human or animal plasma over a wide range of concentrations to determine prolongation effects on the APTT, PT, and TT assays. Linear extrapolations are performed to estimate the concentrations required to double the clotting time for each assay.

Human plasma [2] = assay: Human plasma anticoagulation, thrombin time (TT); conditions: concentration required to double the thrombin time, linear extrapolation
Procedure: as §1, §2

Human plasma [3] = assay: Human plasma anticoagulation, activated partial thromboplastin time (APTT); conditions: concentration required to double the APTT, linear extrapolation
Procedure: as §1, §2

Compound	Human Plasma Anticoagulation 2× Clotting time (ng/mL) PT (Human plasma [1])	Human Plasma Anticoagulation 2× Clotting time (ng/mL) TT (Human plasma [2])	Human Plasma Anticoagulation 2× Clotting time (ng/mL) APTT (Human plasma [3])
1-Piq-Pro-p-NHCH2 C6 H4 C(NH)NH2.2HCl [Example 18]	170 ng/mL	7 ng/mL	79 ng/mL
Cl.NC(N)=NC/C=C/CNC(=O)[C@@H]1CCCN1C(=O)[C@H](N)Cc1ccccc1 (relative stereo) [Example 8, D-Phe-Pro-NHCH2 -trans-CH=CHCH2 NHC(NH)NH2.HCl]		130 ng/mL	
Cl.NC[C@H]1CC[C@H](CNC(=O)[C@@H]2CCCN2C(=O)[C@H](N)Cc2ccccc2)CC1 (relative stereo) [Example 12, D-Phe-Pro-NHCH2 -trans-4-(aminomethyl)cyclohexane.HCl]		1,700 ng/mL	
N=C(N)c1ccc(CNC(=O)[C@@H]2C[C@H](Oc3ccccc3)CN2C(=O)[C@H]2CCCCN2)cc1 (relative stereo) [Example 22, D-hPro-Pro(4-cis-PhO)-p-NHCH2 C6 H4 C(NH)NH2.2HCl]	1,000 ng/mL	170 ng/mL	2,300 ng/mL
N=C(N)c1ccc(CNC(=O)[C@@H]2C[C@@H]3CCCC[C@@H]3N2C(=O)[C@H]2C[C@H]3CCCC[C@H]3CN2)cc1 (relative stereo) [Example 43, D-3-Piq-cis-Ohi-p-NHCH2 C6 H4 C(NH)NH2.2HCl]	930 ng/mL	280 ng/mL	1,100 ng/mL
CCS(=O)(=O)N[C@H](Cc1ccccc1)C(=O)N1[C@H](C(=O)NCc2ccc(C(=N)N)cc2)C[C@@H]2CCCC[C@@H]21 (relative stereo) [Example 45, EtSO2 -Phe-cis-Ohi-p-NHCH2 C6 H4 C(NH)NH2.HCl]	330 ng/mL	8 ng/mL	200 ng/mL
N=C(N)c1ccc(CNC(=O)[C@@H]2C[C@@H]3CCCC[C@@H]3N2C(=O)[C@@H](Cc2ccccc2)NCC(=O)O)cc1 (relative stereo) [Example 47, HOOCCH2 -D-Phe-cis-Ohi-p-NHCH2 C6 H4 C(NH)NH2.HCl]	270 ng/mL	12. ng/mL	140 ng/mL
CCS(=O)(=O)N[C@H](CC1CCCCC1)C(=O)N1CCC[C@H]1C(=O)NCCCCN=C(N)N.Cl [Example 2, EtSO2 -D-Cha-Pro-Agm.HCl]		170 ng/mL	
CCOC(=O)N[C@H](Cc1ccccc1)C(=O)N1CCC[C@H]1C(=O)NCCCCN=C(N)N.Cl [Example 3, EtOCO-D-Phe-Pro-Agm.HCl]		590 ng/mL	
N=C(N)NCCCCCCNC(=O)[C@@H]1CCCN1C(=O)[C@H](N)Cc1ccccc1 [Example 5, D-Phe-Pro-NH(CH2)6 NHC(NH)NH2.HCl]		30,000 ng/mL	
N=C(N)NCCCCCNC(=O)[C@@H]1CCCN1C(=O)[C@H](N)Cc1ccccc1 [Example 6, D-Phe-Pro-NH(CH2)5 NHC(NH)NH2.HCl]		390 ng/mL	
N=C(N)NCCCNC(=O)[C@@H]1CCCN1C(=O)[C@H](N)Cc1ccccc1 [Example 7, D-Phe-Pro-NH(CH2)3 NHC(NH)NH2.HCl]		490 ng/mL	
N=C(N)NCc1ccc(CNC(=O)[C@@H]2CCCN2C(=O)[C@H](N)Cc2ccccc2)cc1 [Example 9, D-Phe-Pro-p-NHCH2 C6 H4 CH2 NHC(NH)NH2.2TFA]		> 91,000 ng/mL	
NCc1ccc(CNC(=O)[C@@H]2CCCN2C(=O)[C@H](N)Cc2ccccc2)cc1 [Example 10, D-Phe-Pro-p-NHCH2 C6 H4 CH2 NH2.HCl]		420 ng/mL	
Cl.NCc1cccc(CNC(=O)[C@@H]2CCCN2C(=O)[C@H](N)Cc2ccccc2)c1 [Example 11, D-Phe-Pro-m-NHCH2 C6 H4 CH2 NH2.HCl]		8,800 ng/mL	
Nc1ccc(CNC(=O)[C@@H]2CCCN2C(=O)[C@H](N)Cc2ccccc2)cc1 [Example 13, D-Phe-Pro-p-NHCH2 C6 H4 NH2.HCl]		660 ng/mL	

Compound	Human Plasma Anticoagulation 2× Clotting time (ng/mL) PT (Human plasma [1])	Human Plasma Anticoagulation 2× Clotting time (ng/mL) TT (Human plasma [2])	Human Plasma Anticoagulation 2× Clotting time (ng/mL) APTT (Human plasma [3])
Cl.Nc1ccc(CCNC(=O)[C@@H]2CCCN2C(=O)[C@H](N)Cc2ccccc2)cc1 [Example 14, D-Phe-Pro-p-NHCH2 CH2 C6 H4 NH2.HCl]		21,000 ng/mL	
Cl.N=C(N)c1cccc(CNC(=O)[C@@H]2CCCN2C(=O)[C@H](N)Cc2ccccc2)c1 [Example 16, D-Phe-Pro-m-NHCH2 C6 H4 C(NH)NH2.0.75HCl]	8,500 ng/mL	650 ng/mL	8,600 ng/mL
N=C(N)c1ccc(CNC(=O)[C@@H]2CCCN2C(=O)[C@H]2C[C@H]3CCCC[C@H]3CN2)cc1 [Example 19, D-3-Piq-Pro-p-NHCH2 C6 H4 C(NH)NH2.3HCl]	540 ng/mL	58 ng/mL	300 ng/mL
CCS(=O)(=O)N[C@H](Cc1ccccc1)C(=O)N1CCC[C@H]1C(=O)NCc1cccc(C(=N)N)c1 [Example 24, EtSO2 -D-Phe-Pro-m-NHCH2 --C6 H4 C(=NH)NH2.HCl]	25,000 ng/mL	1,000 ng/mL	25,900 ng/mL
N=C(N)c1cccc(CNC(=O)[C@@H]2CCCN2C(=O)[C@@H]2NCC[C@@H]3CCCC[C@@H]32)c1 [Example 25, D-1-Piq-Pro-m-NHCH2 --C6 H4 C(=NH)NH2.HCl]	40,400 ng/mL	1,430 ng/mL	34,600 ng/mL
CCS(=O)(=O)N[C@H](Cc1ccccc1)C(=O)N1CCC[C@H]1C(=O)NCCc1ccc(C(=N)N)cc1 [Example 26, EtSO2 -D-Phe-Pro-p-NHCH2 CH2 --C6 H4 C(=NH)NH2.HCl]	750 ng/mL	37 ng/mL	870 ng/mL
CCS(=O)(=O)N[C@H](Cc1ccccc1)C(=O)N1CCC[C@H]1C(=O)NCCc1cccc(C(=N)N)c1.Cl [Example 27, EtSO2 -D-Phe-Pro-m-NHCH2 CH2 --C6 H4 C(=NH)NH2.HCl]	27,000 ng/mL	1,940 ng/mL	27,800 ng/mL
N=C(N)c1ccc(CCNC(=O)[C@@H]2CCCN2C(=O)[C@@H]2NCC[C@@H]3CCCC[C@@H]32)cc1 [Example 28, 1-Piq-Pro-p-NHCH2 CH2 --C6 H4 C(=NH)NH2.2HCl]	8,300 ng/mL	520 ng/mL	8,100 ng/mL
N=C(N)c1cccc(CCNC(=O)[C@@H]2CCCN2C(=O)[C@@H]2NCC[C@@H]3CCCC[C@@H]32)c1 [Example 29, 1-Piq-Pro-m-NHCH2 CH2 --C6 H4 C(=NH)NH2.2HCl]	15,800 ng/mL	750 ng/mL	9,800 ng/mL
CCS(=O)(=O)N[C@H](Cc1ccccc1)C(=O)N1CCC[C@H]1C(=O)NCCCc1ccc(C(=N)N)cc1 [Example 30, EtSO2 -D-Phe-Pro-p-NHCH2 CH2 CH2 --C6 H4 C(=NH)NH2.HCl]	14,400 ng/mL	1,000 ng/mL	14,000 ng/mL
CCS(=O)(=O)N[C@H](Cc1ccccc1)C(=O)N1CCC[C@H]1C(=O)NCCCc1cccc(C(=N)N)c1 [Example 31, EtSO2 -D-Phe-Pro-m-NHCH2 CH2 CH2 --C6 H4 C(=NH)NH2.HCl]	30,000 ng/mL	10,800 ng/mL	34,500 ng/mL
Nc1ccc(CNC(=O)[C@@H]2CCCN2C(=O)[C@@H](CC2CCCCC2)NCC(=O)O)cc1 [Example 62, HO2 CCH2 -D-Cha-Pro-4-NHCH2 C6 H4 NH2.HCl]		54 ng/mL	
Nc1ccc(CCNC(=O)[C@@H]2CCCN2C(=O)[C@@H](CC2CCCCC2)NCC(=O)O)cc1 [Example 63, HO2 CCH2 -D-Cha-Pro-4-NHCH2 CH2 C6 H4 NH2.HCl]		680 ng/mL	
Cl.N=C(N)c1cc(CNC(=O)[C@@H]2CCCN2C(=O)[C@@H](CC2CCCCC2)NCC(=O)O)cs1 [Example 65, HO2 CCH2 -D-Cha-Pro-4-NHCH2 -2-amidinothiophene.HCl]		1 ng/mL	48 ng/mL
D-Phe-Pro-p-NHCH2 C6 H4 C(NH)NH2.HCl [Example 15]		9 ng/mL	89 ng/mL
